Some test systems named below: UO-31 renal; MALME-3M melanoma; EKVX NSCLC; RPMI-8226 leukemia; MDA-N; M14 melanoma; SK-MEL-2 melanoma; DU-145 prostate; NCI-H23 lung.
Holding throughout (assay): NCI tumour cell line growth inhibition, 48 h

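Five compound concentrations were applied to cells in 96-well plates for 48 hours; endpoints were derived by simple linear interpolation of the resulting dose-response curve. At the TGI there is no net growth.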 Where a SMILES comes first, the peptide text is derived from it. [ ]: non-standard residue; d: D form. The star is where a group is joined. X28 = COC1=CC(=O)N(C(=O)[C@@H](O*)C(C)C)[C@H]1Cc1ccccc1; NMeL = CN[C@@H](CC(C)C)C(=O)O; Cbz = O=C(OCc1ccccc1)* Some results are limits rather than exact numbers.

For the compound `COc1ccc(CCN2CCOCC2)cc1`, the TGI in the experiment on UO-31 renal, with MALME-3M melanoma, in the experiment with EKVX NSCLC, in the experiment with RPMI-8226 leukemia, in the experiment with MDA-N and in the experiment with M14 melanoma was greater than 100 µM each time. The TGI in the experiment with SK-MEL-2 melanoma, in the experiment with DU-145 prostate and with NCI-H23 lung was greater than 100 µM throughout.
`CCOC(=O)c1ccc2c(=O)n3c(C(=O)OCC)ccc3c(=O)n12`: the TGI in the experiment with UO-31 renal, in the experiment on MALME-3M melanoma, in the experiment on EKVX NSCLC, in the experiment with RPMI-8226 leukemia, in the experiment with MDA-N and with M14 melanoma was greater than 100 µM throughout. Also, the TGI in the experiment on SK-MEL-2 melanoma, in the experiment on DU-145 prostate and with NCI-H23 lung was greater than 100 µM throughout.
Take `OC(C1CCCC1=N/N=C1/CCCC1C(O)(C(F)(F)Cl)C(F)(F)Cl)(C(F)(F)Cl)C(F)(F)Cl` (centres undefined): the TGI in the experiment on MALME-3M melanoma, in the experiment on EKVX NSCLC, with RPMI-8226 leukemia, with MDA-N, with M14 melanoma and in the experiment on SK-MEL-2 melanoma was greater than 10 µM in each case. The TGI in the experiment with DU-145 prostate and with NCI-H23 lung was greater than 10 µM in each case.
As to `Cc1noc(C)c1N=Nc1ccc2nonc2c1N`, the TGI is greater than 100 µM with UO-31 renal; greater than 100 µM with MALME-3M melanoma; 9.77 µM in the experiment on EKVX NSCLC; greater than 100 µM in the experiment with RPMI-8226 leukemia; greater than 100 µM in the experiment on MDA-N; greater than 100 µM in the experiment with M14 melanoma. Further, the TGI in the experiment with SK-MEL-2 melanoma, in the experiment with DU-145 prostate and in the experiment with NCI-H23 lung was greater than 100 µM in each case.
Consider `COC(=O)C1=C2Nc3ccccc3C23CCN2C(O)C4(CC5CC67CCOC6CCN6CCC8(c9cccc(OC)c9N(C4)C58O)C67)C4OCCC4(C1)C23` (centres undefined), for which the TGI in the experiment with UO-31 renal, in the experiment with MALME-3M melanoma, in the experiment with EKVX NSCLC, with RPMI-8226 leukemia, in the experiment with MDA-N and with M14 melanoma was greater than 100 µM in each case. Moreover, the TGI in the experiment with SK-MEL-2 melanoma, in the experiment on DU-145 prostate and in the experiment with NCI-H23 lung was greater than 100 µM in each case.
With `COC(=O)C1(Cc2ccc3c(c2)CCC3)Cc2cc3c(cc2C1=O)CCC3` (centres undefined), the TGI was greater than 46.4 µM with UO-31 renal; greater than 46.4 µM in the experiment with MALME-3M melanoma; greater than 46.4 µM in the experiment with EKVX NSCLC; 31.3 µM in the experiment with RPMI-8226 leukemia; greater than 46.4 µM in the experiment with MDA-N; greater than 46.4 µM in the experiment with M14 melanoma. The TGI is greater than 31.6 µM in the experiment on SK-MEL-2 melanoma, greater than 46.4 µM in the experiment with DU-145 prostate and greater than 46.4 µM with NCI-H23 lung.
In the case of `CC(C)=CCC[C@@H](C)C1=C(O)C(Nc2ccccc2F)=C(C)C(=O)C1=O`, the TGI in the experiment on UO-31 renal is 47.7 µM; with MALME-3M melanoma, 41.1 µM; with EKVX NSCLC, greater than 100 µM; with RPMI-8226 leukemia it was greater than 89.1 µM; in the experiment on MDA-N it was greater than 100 µM; in the experiment on M14 melanoma it was greater than 57.6 µM. The figures for the TGI in the experiment on SK-MEL-2 melanoma, with DU-145 prostate and with NCI-H23 lung were 68.3 µM, greater than 67.8 µM and greater than 56.8 µM, respectively.
Take `C/C=C/COc1cc(NC(=S)c2ccoc2C)ccc1OC`: the TGI in the experiment on UO-31 renal is greater than 100 µM; in the experiment with MALME-3M melanoma, greater than 100 µM; in the experiment on EKVX NSCLC it was greater than 100 µM; in the experiment on RPMI-8226 leukemia it was 76.7 µM; in the experiment with MDA-N, greater than 100 µM; with M14 melanoma, greater than 100 µM. The TGI in the experiment on SK-MEL-2 melanoma, with DU-145 prostate and with NCI-H23 lung was greater than 100 µM throughout.
As for `COC(=O)Nc1nc2ccc(NS(=O)(=O)c3ccc(F)cc3)cc2[nH]1`, the TGI in the experiment on UO-31 renal was greater than 100 µM; with MALME-3M melanoma, greater than 100 µM; in the experiment on EKVX NSCLC, greater than 100 µM; with RPMI-8226 leukemia, 81.2 µM; in the experiment with MDA-N it was 7.45 µM; with M14 melanoma it was greater than 100 µM. The TGI in the experiment on SK-MEL-2 melanoma, in the experiment on DU-145 prostate and in the experiment with NCI-H23 lung was greater than 100 µM throughout.
As for `CCOc1ccc(C(c2c(O)c3ccccc3oc2=O)c2c(O)c3ccccc3oc2=O)cc1`, the TGI with UO-31 renal was greater than 100 µM; in the experiment on MALME-3M melanoma it was greater than 100 µM; in the experiment with EKVX NSCLC it was greater than 100 µM; in the experiment with RPMI-8226 leukemia it was 93.8 µM; with MDA-N, greater than 100 µM; in the experiment with M14 melanoma it was greater than 100 µM. Further, the TGI is 59.1 µM in the experiment on SK-MEL-2 melanoma, greater than 100 µM in the experiment on DU-145 prostate and greater than 100 µM with NCI-H23 lung.
For the compound `CC[C@@]1(O)C(=O)OCc2c1cc1n(c2=O)Cc2c-1nc1ccccc1c2/C=N\NC(=O)C(N)=O`, the TGI in the experiment with UO-31 renal is 12 µM; in the experiment with MALME-3M melanoma, greater than 79.3 µM; in the experiment with EKVX NSCLC, greater than 100 µM; in the experiment with RPMI-8226 leukemia, greater than 100 µM; in the experiment on MDA-N it was greater than 100 µM; in the experiment with M14 melanoma it was 14.3 µM. Besides, the TGI in the experiment on SK-MEL-2 melanoma is greater than 77.8 µM; with DU-145 prostate, 10.9 µM; in the experiment with NCI-H23 lung, 3.67 µM.
`COC1=CC(=O)N(C(=O)[C@@H](OC(=O)[C@@H]2CCCN2C(=O)[C@@H]2CCCN2C(=O)[C@H](CC(C)C)N(C)C(=O)[C@@H](NC(=O)[C@@H](NC(=O)OCc2ccccc2)C(C)C)C(C)C)C(C)C)[C@H]1Cc1ccccc1` (Cbz-VV[NMeL]PP-X28): the TGI in the experiment on UO-31 renal, with MALME-3M melanoma, with EKVX NSCLC, with RPMI-8226 leukemia, with MDA-N and in the experiment with M14 melanoma was greater than 100 µM in each case. Besides, the TGI was 28.6 µM with SK-MEL-2 melanoma, greater than 100 µM in the experiment with DU-145 prostate and greater than 100 µM in the experiment with NCI-H23 lung.
Consider `CNC(=O)C(NC(=O)[C@H](CC(C)C)NC(=O)[C@@H](S)CCN1C(=O)N(C)C(C)(C)C1=O)C(C)(C)C` (some centres undefined), for which the TGI in the experiment with UO-31 renal, with MALME-3M melanoma, with EKVX NSCLC, in the experiment on RPMI-8226 leukemia, in the experiment with MDA-N and with M14 melanoma was greater than 100 µM each time. Moreover, the TGI in the experiment on SK-MEL-2 melanoma, in the experiment on DU-145 prostate and in the experiment on NCI-H23 lung was greater than 100 µM in each case.
For `CN(C)C(=O)CO/N=C1/C(c2c(O)[nH]c3ccccc23)=Nc2ccccc21`, the TGI in the experiment with UO-31 renal, in the experiment with MALME-3M melanoma, in the experiment with EKVX NSCLC, with RPMI-8226 leukemia, in the experiment on MDA-N and in the experiment on M14 melanoma was greater than 100 µM each time. Also, the TGI in the experiment with SK-MEL-2 melanoma, in the experiment on DU-145 prostate and in the experiment with NCI-H23 lung was greater than 100 µM throughout.
In the case of `OC1NC2CC3NC(O)C(O)NC3CC2NC1O` (centres undefined), the TGI in the experiment with UO-31 renal, with MALME-3M melanoma, in the experiment with EKVX NSCLC, with RPMI-8226 leukemia, in the experiment with MDA-N and in the experiment on M14 melanoma was greater than 100 µM throughout. The TGI with SK-MEL-2 melanoma, with DU-145 prostate and with NCI-H23 lung was greater than 100 µM each time.

For the origin of these results see PubChem BioAssay (NCI).
